The source of these data is patent US10864191B2, “5-HT6 receptor antagonists for use in the treatment of Alzheimer's disease with apathy as comorbidity” (H. Lundbeck A/S, priority 2016, dated 2020).

SMILES strings stand for the structures.

The target of one assay is h5-HT1B (Homo sapiens, UniProt P28222). Particulars: cited from earlier work.
The target of a further assay is h5-HT1E (Homo sapiens, UniProt P28566). To be noted: cited from earlier work.
The target in another assay is h5-HT1D (Homo sapiens, UniProt P28221). Particulars: cited from earlier work.
In assay [1] the test system is donepezil-treated patients with moderate Alzheimer's disease. The experiment in a line: LADDER study: cognition (ADAS-cog) in donepezil-treated patients, incl. post-hoc analysis by NPI apathy score. In kind it is in vivo, human. The protocol: The […] study that was conducted to assess the effect on cognitive performance of idalopirdine in donepezil-treated patients with moderate Alzheimer's disease. The […] study is registered with ClinicalTrials.gov, number NCT01019421 and is reported in Wilkinson D, et al. Safety and efficacy of idalopirdine, a 5-HT6 receptor antagonist, in patients with moderate Alzheimer's disease (LADDER): a randomised, double-blind, placebo-controlled phase 2 trial Lancet Neurol 2014; 13: 141-49. […] Patients were randomly assigned (1:1) to double-blind treatment with idalopirdine or placebo. The cognitive subscale of the 70-point, 11-item Alzheimer's Disease Assessment Scale (ADAS-cog) was rated at baseline and at weeks 4, 12, and 24. The ADAS-Cog scale is described in Rosen W G et al. A new scale for Alzheimer's disease. Am J Psychiatry 1984; 141: 1356-64. […] Subsequent to the analysis of the primary and secondary endpoints of the […] study as described in Example 2 above a post-hoc analysis was conducted. […] For the post-hoc analysis apathy was considered present if the apathy score as measured by Neuropsychiatric Inventory (NPI) was 1 or higher. The statistical analysis predicted a significant interaction at a 5% significance level between apathy score and treatment effect of idalopirdine on cognition as measured by the ADAS-Cog score (a negative score means less decline in cognitive skills and is thus desirable): […]

Assay [2] has the same test system. To be noted: add-on to donepezil; cited from earlier work.
The test system is the same in assay [3]. Briefly: LADDER study post-hoc analysis: Activities of Daily Living (ADCS-ADL) by NPI apathy score. In kind it is in vivo, human. The procedure: Patients were randomly assigned (1:1) to double-blind treatment with idalopirdine or placebo. The same patient population as in Example 3 was analysed in a post-hoc analysis. For the post-hoc analysis apathy was considered present if the apathy score as measured by Neuropsychiatric Inventory (NPI) was 1 or higher. The statistical analysis predicted a significant interaction at a 5% significance level between apathy score and treatment effect of idalopirdine on Activities of Daily Living as measured by the ADCS-ADL score (Galasko et al; An inventory to assess activities of daily living for clinical trials in Alzheimer's Disease. Alzheimer Dis Assoc Disord. 1997;11(Suppl 2):22-32) (a positive score means an improvement): […]

Assay [4] shares this test system. To be noted: add-on to donepezil 10 mg per day, all patients; cited from earlier work.
The target of a further assay is h5-HT7 (Homo sapiens, UniProt P34969). Particulars: cited from earlier work.
Another assay addresses h5-HT2A (Homo sapiens, UniProt P28223). Particulars: cited from earlier work.
The target in the next assay is h5-HT2B (Homo sapiens, UniProt P41595). Particulars: cited from earlier work.
For another assay, the target named is T1, h5-HT1F (Homo sapiens, UniProt P30939).
T1 sequence (P30939 1-366): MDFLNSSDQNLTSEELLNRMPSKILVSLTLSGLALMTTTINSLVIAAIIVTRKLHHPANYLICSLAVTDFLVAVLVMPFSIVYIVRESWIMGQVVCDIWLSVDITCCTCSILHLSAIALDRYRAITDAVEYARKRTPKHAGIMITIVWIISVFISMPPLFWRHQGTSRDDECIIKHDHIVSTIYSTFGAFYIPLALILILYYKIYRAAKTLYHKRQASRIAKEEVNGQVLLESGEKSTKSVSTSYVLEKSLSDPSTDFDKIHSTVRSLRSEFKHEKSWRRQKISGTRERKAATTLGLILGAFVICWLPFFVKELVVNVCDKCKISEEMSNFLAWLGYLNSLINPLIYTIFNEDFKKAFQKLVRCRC
To be noted: cited from earlier work.

The target of another assay is T2, h5-HT1A (Homo sapiens, UniProt P08908).
T2 sequence (P08908 1-422): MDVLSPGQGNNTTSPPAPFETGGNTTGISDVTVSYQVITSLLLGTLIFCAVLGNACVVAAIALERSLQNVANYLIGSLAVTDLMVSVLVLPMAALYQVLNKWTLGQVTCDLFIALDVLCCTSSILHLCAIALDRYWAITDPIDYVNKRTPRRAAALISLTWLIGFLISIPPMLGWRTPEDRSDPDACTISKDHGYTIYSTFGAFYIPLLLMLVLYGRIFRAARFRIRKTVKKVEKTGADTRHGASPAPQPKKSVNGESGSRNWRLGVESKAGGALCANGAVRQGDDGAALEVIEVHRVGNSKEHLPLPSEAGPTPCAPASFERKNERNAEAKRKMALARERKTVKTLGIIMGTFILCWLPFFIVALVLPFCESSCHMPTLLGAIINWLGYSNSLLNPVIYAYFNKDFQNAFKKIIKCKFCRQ
To be noted: cited from earlier work.

h5-HT7, sequence (P34969 whole entry): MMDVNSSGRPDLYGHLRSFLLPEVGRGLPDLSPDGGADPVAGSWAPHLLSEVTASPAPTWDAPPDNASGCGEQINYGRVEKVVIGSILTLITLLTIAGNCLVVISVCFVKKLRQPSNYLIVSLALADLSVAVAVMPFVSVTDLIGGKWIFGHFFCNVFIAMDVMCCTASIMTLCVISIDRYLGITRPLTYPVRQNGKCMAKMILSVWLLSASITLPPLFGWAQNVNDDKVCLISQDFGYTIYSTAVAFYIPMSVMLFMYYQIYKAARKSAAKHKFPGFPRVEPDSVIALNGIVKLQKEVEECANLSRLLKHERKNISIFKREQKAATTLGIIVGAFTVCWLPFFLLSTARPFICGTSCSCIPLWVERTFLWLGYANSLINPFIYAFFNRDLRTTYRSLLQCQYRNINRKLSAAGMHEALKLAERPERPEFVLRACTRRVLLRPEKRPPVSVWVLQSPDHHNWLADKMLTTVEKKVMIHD
h5-HT1D, sequence (P28221 whole entry): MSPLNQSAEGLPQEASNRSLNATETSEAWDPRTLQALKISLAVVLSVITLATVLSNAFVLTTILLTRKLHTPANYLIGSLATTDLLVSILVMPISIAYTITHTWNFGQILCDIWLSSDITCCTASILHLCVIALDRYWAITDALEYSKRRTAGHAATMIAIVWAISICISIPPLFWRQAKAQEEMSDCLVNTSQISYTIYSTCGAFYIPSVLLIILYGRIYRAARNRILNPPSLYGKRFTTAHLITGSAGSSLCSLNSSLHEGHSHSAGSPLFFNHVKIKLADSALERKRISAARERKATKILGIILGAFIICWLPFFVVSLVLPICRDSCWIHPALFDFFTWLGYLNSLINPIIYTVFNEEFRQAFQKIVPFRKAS
h5-HT2A, sequence (P28223 whole entry): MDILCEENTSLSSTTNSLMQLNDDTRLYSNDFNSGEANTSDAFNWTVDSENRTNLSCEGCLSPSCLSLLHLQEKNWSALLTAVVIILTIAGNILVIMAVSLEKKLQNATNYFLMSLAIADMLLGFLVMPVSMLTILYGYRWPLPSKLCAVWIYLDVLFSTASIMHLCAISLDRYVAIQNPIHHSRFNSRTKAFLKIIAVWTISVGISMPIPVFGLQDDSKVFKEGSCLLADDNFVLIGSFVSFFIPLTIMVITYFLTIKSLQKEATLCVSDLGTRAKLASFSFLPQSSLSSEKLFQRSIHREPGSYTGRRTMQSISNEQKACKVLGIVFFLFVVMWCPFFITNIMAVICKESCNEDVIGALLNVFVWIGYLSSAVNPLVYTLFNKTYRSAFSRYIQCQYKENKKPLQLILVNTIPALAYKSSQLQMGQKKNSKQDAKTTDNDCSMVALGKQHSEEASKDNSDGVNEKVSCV
h5-HT1E, sequence (P28566 whole entry): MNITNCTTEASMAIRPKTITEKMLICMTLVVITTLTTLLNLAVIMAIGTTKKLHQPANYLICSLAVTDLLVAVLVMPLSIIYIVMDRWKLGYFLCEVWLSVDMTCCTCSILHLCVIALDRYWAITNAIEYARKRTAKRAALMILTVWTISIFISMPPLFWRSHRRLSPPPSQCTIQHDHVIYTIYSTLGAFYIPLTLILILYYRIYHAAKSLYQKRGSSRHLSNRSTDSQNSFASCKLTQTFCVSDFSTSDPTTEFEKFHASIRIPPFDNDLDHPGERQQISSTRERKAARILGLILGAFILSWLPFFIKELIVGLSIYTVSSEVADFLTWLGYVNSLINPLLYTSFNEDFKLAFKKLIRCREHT
h5-HT2B, sequence (P41595 whole entry): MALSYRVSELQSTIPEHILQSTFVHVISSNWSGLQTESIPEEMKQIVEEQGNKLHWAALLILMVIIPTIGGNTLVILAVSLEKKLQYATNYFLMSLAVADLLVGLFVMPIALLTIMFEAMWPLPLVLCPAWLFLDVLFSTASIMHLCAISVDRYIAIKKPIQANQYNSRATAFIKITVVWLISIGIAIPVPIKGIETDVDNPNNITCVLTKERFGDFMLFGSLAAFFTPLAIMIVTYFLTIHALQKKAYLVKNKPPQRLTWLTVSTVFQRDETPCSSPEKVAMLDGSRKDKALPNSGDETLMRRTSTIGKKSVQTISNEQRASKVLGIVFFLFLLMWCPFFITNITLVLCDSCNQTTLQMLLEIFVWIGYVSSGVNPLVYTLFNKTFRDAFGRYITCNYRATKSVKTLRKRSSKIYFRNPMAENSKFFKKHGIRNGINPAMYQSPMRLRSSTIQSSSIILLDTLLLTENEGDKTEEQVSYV
h5-HT1B, sequence (P28222 whole entry): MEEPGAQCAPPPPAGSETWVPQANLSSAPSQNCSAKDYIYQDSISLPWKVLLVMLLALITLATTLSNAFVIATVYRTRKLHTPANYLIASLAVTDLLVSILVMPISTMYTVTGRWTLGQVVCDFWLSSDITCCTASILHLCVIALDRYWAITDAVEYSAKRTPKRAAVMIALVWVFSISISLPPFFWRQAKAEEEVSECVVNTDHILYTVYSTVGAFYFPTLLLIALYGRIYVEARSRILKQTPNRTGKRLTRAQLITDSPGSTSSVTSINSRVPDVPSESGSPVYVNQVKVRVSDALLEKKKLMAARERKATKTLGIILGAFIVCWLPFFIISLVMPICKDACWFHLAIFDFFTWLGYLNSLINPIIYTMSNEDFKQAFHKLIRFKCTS

With `Fc1ccc2c(CCNCc3cccc(OCC(F)(F)C(F)F)c3)c[nH]c2c1` [idalopirdine, N-(2-(6-fluoro-1H-indol-3-yl)ethyl)-3-(2,2,3,3-tetrafluoropropoxy)-benzylamine], the Ki – broadly, a measure of affinity in units of concentration, obtained from inhibition or displacement – on h5-HT1B was greater than 10000 nM; on h5-HT1E, greater than 4600 nM; on h5-HT1D it was 2600 nM; at h5-HT7, greater than 10000 nM; on h5-HT2A it was 83 nM; on h5-HT2B, greater than 4100 nM. Besides, the values for the Ki at h5-HT1F and at h5-HT1A were 2400 nM and 2300 nM, respectively. The “Estimated change in effect on cognition at week 24 per unit increase in NPI apathy item score (Estimate)” value in assay [1] (ADAS-Cog score, negative = less decline, add-on to donepezil) is on record as −0.64. In assay [1] (ADAS-Cog, NPI apathy score 0, add-on to donepezil), the “Effect on cognition at week 24 in patients without apathy (Estimate)” value is −0.81. The “Effect on cognition at week 24 in patients with apathy (Estimate)” value in [1] (ADAS-Cog, NPI apathy score 1 or higher, add-on to donepezil) was −3.8. Further, the “Effects on pre-specified secondary efficacy endpoints at week 24” value in assay [2] is recorded as “None of the effects of idalopirdine on the pre-specified secondary endpoints were statistically significant”. Also, in assay [3] (ADCS-ADL score, positive = improvement, add-on to donepezil), the “Estimated change in effect on ADL at week 24 per unit increase in NPI apathy item score (Estimate)” value is given as 0.92. The “Effect on ADL at week 24 in patients without apathy (Estimate)” value in assay [3] (ADCS-ADL, NPI apathy score 0, add-on to donepezil) was 0.39. Besides, in [3] (ADCS-ADL, NPI apathy score 1 or higher, add-on to donepezil), the “Effect on ADL at week 24 in patients with apathy (Estimate)” value is listed as 2.89. Also, in assay [4], the “Change from baseline in the ADAS-cog at week 24 (primary endpoint) versus placebo” value was “significantly better with idalopirdine than with placebo”.
